Test results from patent publication US9005670B2, “Use of histone acetyltransferase inhibitors as novel anti-cancer therapies” (The Johns Hopkins University, priority 2010, dated 2015).
Entries after “also recorded” stand apart in the source; their conditions may differ.

Legend:
Mel-1 melanoma cells = test: combination with chemotherapy, total cell number; format: cell-based; conditions: 48 hours
Procedure: The cells were grown for 24 hours in medium. The cells were given fresh medium and either 1 μM of cisplatin or 200 μM of temozolamide was added. Total cell number was counted on Day 0, at 24 hours, and 48 hours after addition of cisplatin or temozolamide.
After 24 hours, the treated and mock-treated cells were given fresh medium, and the cells were treated with cisplatin or temozolamide for 48 hours.

[1] = system: histone H3 and H4 acetylation in C3H 10T1/2 mouse fibroblasts; test: histone acetylation Western blot in mouse cells; format: cell-based
Text: Histones in mammalian cells show characteristic rates of turnover of acetylation, with a majority showing slower rates and a very minor fraction showing very fast turnover. This latter fraction has been associated with gene activation, and is defined by rapid hyperacetylation in the presence of deacetylase inhibitors such as Trichostatin A (TSA). In addition to SDS gels (FIG. 9A), Acid-Urea gels (AU, FIG. 9B) were used, on which loss of a positive charge upon lysine acetylation retards migration, producing a ladder of bands corresponding to integral changes in acetylation.
C3H 10T1/2 mouse fibroblasts were grown in DMEM with 10% FCS at 37° C. with 5% CO2. Confluent cultures were rendered quiescent in DMEM with 0.5% FCS for 18-20 h prior to treatment. […] Antibodies were used at the following concentrations: total H3 (1:10000; ab7834; Abcam); H4K12ac (1:2500; 06-761; Upstate). Rabbit anti-H3K9ac (1:10000) antibodies were generated in-house. Histones were isolated from cells by acid extraction, separated by SDS and acid-urea polyacrylamide gel electrophoresis and analyzed by Western blotting.

p300 HAT = target: T1, p300 HAT (Homo sapiens, UniProt Q09472, DEL1529-1560/M1652G); test: direct radioactive p300 HAT assay (14C-acetyl-CoA transfer to H4-15); format: biochemical
T1 construct: A variant of the HAT domain of p300 (residues 1287 to 1652) was expressed as a fusion; a C-terminal peptide corresponding to residues 1653-1666 of p300; made in house; host or cells: E. coli BL21(RIL)-DE3; C-terminal peptide by solid phase synthesis
T1 sequence (Q09472 with tags, fused parts or gaps DEL1529-1560/M1652G limits assumed): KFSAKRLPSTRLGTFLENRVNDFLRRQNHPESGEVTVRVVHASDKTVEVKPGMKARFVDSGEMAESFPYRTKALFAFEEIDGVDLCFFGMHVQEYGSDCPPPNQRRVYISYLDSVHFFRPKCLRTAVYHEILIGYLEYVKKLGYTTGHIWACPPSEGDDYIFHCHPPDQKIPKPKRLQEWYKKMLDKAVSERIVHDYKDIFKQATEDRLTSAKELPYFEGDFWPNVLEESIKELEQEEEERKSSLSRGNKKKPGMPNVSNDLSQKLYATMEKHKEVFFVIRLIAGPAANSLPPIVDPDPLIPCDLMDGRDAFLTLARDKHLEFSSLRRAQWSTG
Procedure: In this assay, production of ^14C-labeled Ac-H4-15 is monitored electrophoretically. Reactions were performed in 20 mM HEPES, pH 7.9, and contained 5 mM DTT, 80 μM EDTA, 40 μg/mL BSA, 100 μM H4-15, and 5 nM p300. […] Reactions were incubated at 30° C. for 10 minutes, initiated with addition of a 1:1 mixture of 12 C-acetyl-CoA and 14 C-acetyl-CoA to a final concentration of 20 μM, and allowed to run for 10 min at 30° C. Reactions are then quenched with addition of 14% SDS (w/v). Turnover was kept below 10%. All compounds were screened in duplicate. Samples were then loaded onto a 16% Tris-Tricine gel along with a BSA standard and run at 140 V for 90 minutes. Gels were washed and dried, and exposed in a PhosphorImager cassette for ˜2 days. Bands corresponding to Ac-H4-15 were then quantified using ImageQuant.
Reactions were performed in 20 mM HEPES, pH 7.9, and contained 5 mM DTT, 80 μM EDTA, 40 μg/mL BSA, 100 μM […], and 5 nM p300. Putative inhibitors were added over a range of concentrations, with DMSO concentration kept constant (<5%). Reactions were incubated at 30° C. for 10 minutes, then initiated with addition of a 1:1 mixture of ^12C-acetyl-CoA and ^14C-acetyl-CoA to 20 μM. After […] at 30° C., reactions were quenched with 14% SDS (w/v). All concentrations were screened in duplicate. Gels were run, washed, dried, and exposed to a PhosphorImager plate as described above, and production of Ac-H4-15 quantified. Data were fit to the following equation to obtain IC50s. […]

WM983A melanoma cells = test: 3H-thymidine incorporation, WM983A; conditions: 20 μM, 24 hours
[2] = cells pre-treated with 2 μM C646 for 24 hours, then 1 μM cisplatin or 200 μM temozolamide
[3] = mock-treated cells, 1 μM cisplatin or 200 μM temozolamide

Structure (SMILES)	p300 HAT inhibition, result in words (analogs compared with C646) (p300 HAT)	melting point [°C]	also measured
N.N.[Cl][Pt][Cl] [cisplatin]			decrease in cell number (Mel-1 melanoma cells; [2]): 28%; decrease in cell number (Mel-1 melanoma cells; [3]): 35%
CC(/C=C/C(=O)NO)=C\[C@@H](C)C(=O)c1ccc(N(C)C)cc1 [TSA, Trichostatin A, reference compound]			acetylation of H3 and H4 ([1]; TSA 33 nM, 30 minutes): increased
Cn1nnc2c(C(N)=O)ncn2c1=O [temozolamide]			decrease in cell number (Mel-1 melanoma cells; [2]): 31%; decrease in cell number (Mel-1 melanoma cells; [3]): 13%
CC1=NN(c2ccc(C(=O)O)cc2)C(=O)/C1=C\c1ccc(-c2ccccn2)o1 [Compound 6p, 4-(4,5-dihydro-3-methyl-5-oxy-4-((5-(pyridin-2-yl)furan-2-yl)methylene)pyrazol-1-yl)benzoic acid]	eliminated p300 inhibitory action	294 to 296	
CC1=NN(c2ccc(C(=O)O)cc2)C(=O)C1Cc1ccc(-c2cc(C)c(C)cc2[N+](=O)[O-])o1 (stereo not shown) [Compound C37, 4-{4-[5-(4,5-Dimethyl-2-nitro-phenyl)-furan-2-ylmethyl]-3-methyl-5-oxo-4,5-dihydro-pyrazol-1-yl}-benzoic acid]	does not detectably block p300 HAT activity; also recorded: did not detectably block p300 HAT activity; also recorded: devoid of p300 HAT inhibitory activity		sensitivity of cell line to compound (WM983A melanoma cells): resistant; acetylation of H3 or H4, with and without TSA ([1]; 25 μM, 3 hours): no effect
CC1=NN(CCC(=O)O)C(=O)C1=Cc1ccc(-c2cc(C)c(C)cc2[N+](=O)[O-])o1 [Compound 6k, 3-(4,5-dihydro-3-methyl-4-((5-(4,5-dimethyl-2-nitrophenyl)furan-2-yl)methylene)-5-oxopyrazol-1-yl)propanoic acid]	cannot successfully replace the benzoate ring of C646 and still retain p300 inhibitory potency	189 to 190	
CC1=NN(c2ccc(C(=O)O)cc2)C(=O)/C1=C\c1ccc(-c2cc(C)c(C)cc2CO)o1 [Compound 6l, 4-(4,5-dihydro-4-((5-(2-(hydroxymethyl)-4,5-dimethylphenyl)-furan-2-yl)methylene)-3-methyl-5-oxopyrazol-1-yl)benzoic acid]	substantial reduction in potency	209 to 211	
COC(=O)c1cc(C)c(C)cc1-c1ccc(/C=C2\C(=O)N(c3ccc(C(=O)O)cc3)N=C2C)o1 [Compound 6m, 4-(4,5-dihydro-4-((5-(4,5-dimethyl-2-methylbenzoate)furan-2-yl)methylene)-3-methyl-5-oxapyrazol-1-yl)benzoic acid]	well tolerated	254 to 256	
